Target: New Delhi metallo-β-lactamase 1 (NDM-1) (Acinetobacter baumannii, UniProt F8UNN7)
Test: steady-state kinetics of hydrolysis
Assay type: biochemical

New Delhi metallo-β-lactamase 1 (NDM-1), sequence (F8UNN7 1-270): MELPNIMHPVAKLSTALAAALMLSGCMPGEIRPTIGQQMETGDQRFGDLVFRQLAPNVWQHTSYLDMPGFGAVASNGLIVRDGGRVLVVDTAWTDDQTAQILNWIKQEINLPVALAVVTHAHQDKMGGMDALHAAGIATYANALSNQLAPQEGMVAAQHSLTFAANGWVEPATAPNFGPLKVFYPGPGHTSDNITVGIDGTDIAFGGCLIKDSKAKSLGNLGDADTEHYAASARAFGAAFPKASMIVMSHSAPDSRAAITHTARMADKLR

Row | SMILES | Km [µM]
1 | CO[C@@]1(NC(=O)Cc2cccs2)C(=O)N2C(C(=O)O)=C(COC(N)=O)CS[C@@H]21 [cefoxitin] | > 60
2 | CC(C)(O/N=C(\C(=O)N[C@@H]1C(=O)N2C(C(=O)[O-])=C(C[n+]3ccccc3)CS[C@H]12)c1csc(N)n1)C(=O)O [ceftazidime] | > 60
3 | C[C@@H](O)[C@H]1C(=O)N2C(C(=O)O)=C(S[C@@H]3CN[C@H](C(=O)N(C)C)C3)[C@H](C)[C@H]12 [meropenem] | > 60
